Reference: PubChem BioAssay AID248 (DTP/NCI, 2004)
Values joined by “and” are separate entries in the source; they are usually repeats but may differ in a detail not shown here. Equal values may be shown once. Inconclusive results and toxic doses are left out. Cut-off read from the data, not from the text of the source: active = T/C of 150% or more; inactive = T/C below 125%.

Tested on: L1210 leukemia ip in BDF1 mice, survival T/C
Assay: NCI In Vivo Anticancer Drug Screen. Data for tumor model L1210 Leukemia (intraperitoneal) in B6D2F1 (BDF1) mice
Conditions: endpoint: mean survival time, higher = longer survival
Method in brief: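 Antitumor effect is assessed in tumor-bearing animals. Survival in the compound arm is compared with a vehicle-dosed control arm and expressed as their quotient.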

[1] = dose: 100.0 mg/kg/injection, schedule: Q01DX001 (ip), vehicle: Klucel (hydroxypropylcellulose) (HPC)
[2] = dose: 100.0 mg/kg/injection, schedule: Q01DX009 (ip), vehicle: Klucel (hydroxypropylcellulose) (HPC)
[3] = dose: 200.0 mg/kg/injection, schedule: Q01DX001 (ip), vehicle: Klucel (hydroxypropylcellulose) (HPC)
[4] = dose: 200.0 mg/kg/injection, schedule: Q01DX009 (ip), vehicle: Klucel (hydroxypropylcellulose) (HPC)
[5] = dose: 400.0 mg/kg/injection, schedule: Q01DX001 (ip), vehicle: Klucel (hydroxypropylcellulose) (HPC)
[6] = dose: 400.0 mg/kg/injection, schedule: Q01DX009 (ip), vehicle: Klucel (hydroxypropylcellulose) (HPC)
[7] = dose: 100.0 mg/kg/injection, schedule: Q01DX001 (ip), vehicle: saline
[8] = dose: 200.0 mg/kg/injection, schedule: Q01DX001 (ip), vehicle: saline
[9] = dose: 400.0 mg/kg/injection, schedule: Q01DX001 (ip), vehicle: saline
[10] = dose: 100.0 mg/kg/injection, schedule: Q01DX009 (ip), vehicle: saline with Tween-80
[11] = dose: 100.0 mg/kg/injection, schedule: Q04DX003 (ip), vehicle: saline with Tween-80
[12] = dose: 200.0 mg/kg/injection, schedule: Q01DX009 (ip), vehicle: saline with Tween-80
[13] = dose: 200.0 mg/kg/injection, schedule: Q04DX003 (ip), vehicle: saline with Tween-80
[14] = dose: 400.0 mg/kg/injection, schedule: Q01DX009 (ip), vehicle: saline with Tween-80
[15] = dose: 400.0 mg/kg/injection, schedule: Q04DX003 (ip), vehicle: saline with Tween-80
[16] = dose: 100.0 mg/kg/injection, schedule: Q04DX003 (ip), vehicle: Klucel (hydroxypropylcellulose) (HPC)
[17] = dose: 200.0 mg/kg/injection, schedule: Q04DX003 (ip), vehicle: Klucel (hydroxypropylcellulose) (HPC)
[18] = dose: 400.0 mg/kg/injection, schedule: Q04DX003 (ip), vehicle: Klucel (hydroxypropylcellulose) (HPC)
[19] = dose: 75.0 mg/kg/injection, schedule: Q01DX001 (ip), vehicle: saline
[20] = dose: 150.0 mg/kg/injection, schedule: Q01DX001 (ip), vehicle: saline
[21] = dose: 50.0 mg/kg/injection, schedule: Q01DX001 (ip), vehicle: saline
[22] = dose: 100.0 mg/kg/injection, schedule: Q04DX003 (ip), vehicle: saline
[23] = dose: 200.0 mg/kg/injection, schedule: Q04DX003 (ip), vehicle: saline
[24] = dose: 400.0 mg/kg/injection, schedule: Q04DX003 (ip), vehicle: saline

Measured: T/C

C=CCc1c[nH]c(=S)[nH]c1=O.[Hg]
inactive: dose: 3.12 mg/kg/injection, schedule: Q01DX001 (ip), vehicle: Klucel (hydroxypropylcellulose) (HPC) 98 % of control | dose: 6.0 mg/kg/injection, schedule: Q01DX009 (ip), vehicle: Klucel (hydroxypropylcellulose) (HPC) 98 % of control | dose: 6.0 mg/kg/injection, schedule: Q04DX003 (ip), vehicle: Klucel (hydroxypropylcellulose) (HPC) 97 % of control | dose: 6.25 mg/kg/injection, schedule: Q01DX001 (ip), vehicle: Klucel (hydroxypropylcellulose) (HPC) 98 % of control | dose: 12.0 mg/kg/injection, schedule: Q01DX009 (ip), vehicle: Klucel (hydroxypropylcellulose) (HPC) 94 % of control | dose: 12.0 mg/kg/injection, schedule: Q04DX003 (ip), vehicle: Klucel (hydroxypropylcellulose) (HPC) 100 % of control | dose: 12.5 mg/kg/injection, schedule: Q01DX001 (ip), vehicle: Klucel (hydroxypropylcellulose) (HPC) 93 % of control and 96 % of control | dose: 50.0 mg/kg/injection, schedule: Q01DX001 (ip), vehicle: Klucel (hydroxypropylcellulose) (HPC) 93 % of control

Sc1c(Cl)c(Cl)c(Cl)c(Cl)c1Cl
inactive: [1] 106 % of control | [2] 93 % of control | [3] 106 % of control | [4] 100 % of control | [5] 104 % of control | [6] 93 % of control

CCCCCOC(=O)C(C(=O)OCCCCC)(C(=O)OCCCCC)C(=O)OCCCCC
inactive: [7] 100 % of control | [8] 104 % of control | [9] 95 % of control

C=CCOc1ccnc(N)n1
inactive: [10] 90 % of control | [11] 105 % of control | [12] 95 % of control | [13] 100 % of control | [14] 100 % of control | [15] 102 % of control

CCCCCCC(=O)/C=C\c1ccccc1
inactive: dose: 100.0 mg/kg/injection, schedule: Q01DX001 (sc), vehicle: other 94 % of control | dose: 200.0 mg/kg/injection, schedule: Q01DX001 (sc), vehicle: other 91 % of control | dose: 400.0 mg/kg/injection, schedule: Q01DX001 (sc), vehicle: other 100 % of control

COc1ccc2c(c1)C13CCCCC1C(C2)N(CC1(c2ccccc2)CC1)CC3 (stereo not drawn)
inactive: [2] 98 % of control | [16] 96 % of control | [4] 90 % of control | [17] 93 % of control | [18] 101 % of control

O=C(O)c1ccccc1Oc1ccccc1
inactive: dose: 100.0 mg/kg/injection, schedule: Q01DX001 (ip), vehicle: saline with Tween-80 94 % of control | dose: 200.0 mg/kg/injection, schedule: Q01DX001 (ip), vehicle: saline with Tween-80 91 % of control | dose: 400.0 mg/kg/injection, schedule: Q01DX001 (ip), vehicle: saline with Tween-80 91 % of control

C/C(=C\c1cc(-c2ccccc2)cc(=O)o1)c1ccccc1
inactive: [10] 89 % of control | [11] 104 % of control | [12] 97 % of control | [13] 95 % of control | [14] 89 % of control | [15] 103 % of control

C[n+]1cccc2cccc(C(=O)O)c21
inactive: [19] 100 % of control | [20] 94 % of control

N=C(N)SCCON1C(=O)c2ccccc2C1=O
inactive: [21] 102 % of control | [7] 108 % of control | [8] 112 % of control

Cc1cc(C)nc(NCCCCC(N)C(=O)O)n1 (stereo not drawn)
inactive: dose: 50.0 mg/kg/injection, schedule: Q04DX002 (ip), vehicle: saline 104 % of control | dose: 100.0 mg/kg/injection, schedule: Q04DX002 (ip), vehicle: saline 104 % of control | dose: 200.0 mg/kg/injection, schedule: Q04DX002 (ip), vehicle: saline 101 % of control

O=C(Nc1ccc(F)c([N+](=O)[O-])c1)N(Cc1ccccc1)c1ccccc1
inactive: [2] 101 % of control | [4] 104 % of control | [6] 98 % of control

NC(CSP(=O)(O)O)=NCC12CC3CC(CC(C3)C1)C2
inactive: dose: 10.0 mg/kg/injection, schedule: Q04DX002 (ip), vehicle: Klucel (hydroxypropylcellulose) (HPC) 102 % of control | dose: 20.0 mg/kg/injection, schedule: Q04DX002 (ip), vehicle: Klucel (hydroxypropylcellulose) (HPC) 109 % of control

CCCCCCCCCCCCCCCC(=O)Oc1ccc(/C(CC)=C(/CC)c2ccc(OC(=O)CCCCCCCCCCCCCCC)cc2)cc1
inactive: [11] 89 % of control | [12] 91 % of control | [13] 100 % of control | [14] 91 % of control | [15] 89 % of control

C[N+]1(C2CC3CCC2C3=O)CCOCC1 (stereo not drawn)
inactive: [19] 97 % of control | [20] 98 % of control

CCc1cc2oc(C)c(C)c2c(N=Nc2ccccc2[N+](=O)[O-])c1O
inactive: dose: 100.0 mg/kg/injection, schedule: Q04DX002 (ip), vehicle: Klucel (hydroxypropylcellulose) (HPC) 96 % of control | dose: 200.0 mg/kg/injection, schedule: Q04DX002 (ip), vehicle: Klucel (hydroxypropylcellulose) (HPC) 96 % of control | dose: 400.0 mg/kg/injection, schedule: Q04DX002 (ip), vehicle: Klucel (hydroxypropylcellulose) (HPC) 93 % of control

CC/C=C(\C)C1(CCC)C(=O)NC(=O)NC1=O
inactive: [19] 102 % of control | [20] 107 % of control

CON=C(c1ccc(N(C)C)cc1)c1ccc(N(C)C)cc1
inactive: [1] 104 % of control | [16] 103 % of control | [3] 101 % of control | [17] 100 % of control | [5] 101 % of control | [18] 92 % of control

CCCCCCc1cc2c(cc1CCCC)CCC2
inactive: [21] 95 % of control | [7] 101 % of control | [8] 98 % of control | [9] 116 % of control

COc1cccc(CCNC(=O)CC(=O)O)c1OC
inactive: [22] 92 % of control | [23] 103 % of control | [24] 110 % of control

Nc1c(N)c2ccccc2c2ccccc12
inactive: dose: 50.0 mg/kg/injection, schedule: Q01DX001 (ip), vehicle: carboxymethylcellulose (CMC) 115 % of control | dose: 100.0 mg/kg/injection, schedule: Q01DX001 (ip), vehicle: carboxymethylcellulose (CMC) 110 % of control | dose: 200.0 mg/kg/injection, schedule: Q01DX001 (ip), vehicle: carboxymethylcellulose (CMC) 117 % of control | dose: 400.0 mg/kg/injection, schedule: Q01DX001 (ip), vehicle: carboxymethylcellulose (CMC) 110 % of control

CCOc1nsc(OCC)n1
inactive: dose: 75.0 mg/kg/injection, schedule: Q01DX009 (ip), vehicle: other 103 % of control | [22] 98 % of control | dose: 150.0 mg/kg/injection, schedule: Q01DX009 (ip), vehicle: other 107 % of control | [23] 101 % of control | dose: 300.0 mg/kg/injection, schedule: Q01DX009 (ip), vehicle: other 93 % of control | [24] 103 % of control
